Laboratory results published in patent US6242494A, “Substituted β-amino acid inhibitors of methionine aminopeptidase-2” (Abbott Laboratories, priority 1999, dated 2001).
Counter-ions that a name gives are not always drawn. Like-named read-outs stand apart in the source and are kept apart here.

Molecular target: T1, methionine aminopeptidase-2 (MetAP2) (Homo sapiens, UniProt P50579)
T1 construct: made in house; host or cells: insect cells, baculovirus system (secreted, purified from culture supernatant)
T1 sequence (P50579 whole entry): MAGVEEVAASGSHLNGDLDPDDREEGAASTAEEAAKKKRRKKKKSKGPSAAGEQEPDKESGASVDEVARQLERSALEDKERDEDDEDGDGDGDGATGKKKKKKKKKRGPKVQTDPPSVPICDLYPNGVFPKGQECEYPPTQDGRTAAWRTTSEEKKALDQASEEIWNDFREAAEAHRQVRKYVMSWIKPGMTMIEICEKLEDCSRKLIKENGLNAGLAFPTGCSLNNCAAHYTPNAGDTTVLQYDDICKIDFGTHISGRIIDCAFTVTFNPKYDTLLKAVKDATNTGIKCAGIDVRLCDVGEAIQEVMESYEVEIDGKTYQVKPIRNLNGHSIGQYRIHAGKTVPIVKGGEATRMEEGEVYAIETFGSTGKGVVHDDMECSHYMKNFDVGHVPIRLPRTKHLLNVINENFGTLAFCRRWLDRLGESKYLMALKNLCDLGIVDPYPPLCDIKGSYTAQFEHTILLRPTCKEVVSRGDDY
Assay: Inhibition of MetAP2 enzyme activity (96-well, Met-Ala-Ser substrate, L-amino acid oxidase/peroxidase/ortho-dianisidine, 450 nm)
Type: biochemical
Settings: pH 7.4, Met-Ala-Ser substrate, 20 minutes

[1] = IC50, recombinant MetAP2 4 μg/mL

Compound	IC50 [1]	IC50 (recombinant MetAP2 4 μg/mL, read-out: IC50)
CC(Cc1ccccc1F)NC(=O)C(O)[C@H](N)CC1CCCCC1 (mixture of isomers) [Example 226, (2RS,3R)-3-amino-4-cyclohexyl-N-(2-(2-fluorophenyl)-1-methylethyl)-2-hydroxybutanamide Hydrochloride]	970 nM	–
CCOC(=O)CN(C)C(=O)C(O)[C@H](N)CCSCC (stereo partly shown) [Example 39, hydrochloride]	5100 nM	–
N[C@H](CC1CCCCC1)C(O)C(=O)Nc1ccc(F)cc1 (mixture of isomers) [Example 144, (2RS,3R)-3-amino-4-cyclohexyl-N-(4-fluorophenyl)-2-hydroxybutanamide]	2100 nM	–
Cc1ccc(CNC(=O)C(O)[C@H](N)CC2CCCCC2)cc1 (mixture of isomers) [Example 187, (2RS,3R)-3-amino-4-cyclohexyl-2-hydroxy-N-(4-methylbenzyl)butanamide hydrochloride]	1200 nM	–
N[C@H](CC1CCCCC1)C(O)C(=O)NCCc1c(Cl)cccc1Cl (stereo partly drawn) [Example 165, (2RS,3R)-3-amino-4-cyclohexyl-N-(2,6-dichlorophenethyl)-2-hydroxybutanamidehydrochloride]	260 nM	–
CCNC(=O)[C@H](C)NC(=O)C(O)[C@@H](N)CCSC (stereo partly drawn) [Example 2, (2RS,3S,1'S)-N-((1-Ethylcarboxamido)ethyl)-3-amino-2-hydroxy-5-(methylthio)pentanamide hydrochloride]	47000 nM	–
C[C@@H](c1cccc2ccccc12)N(C)C(=O)C(O)[C@H](N)CC1CCCCC1 (mixture of isomers) [Example 219, (2RS,3R)-3-amino-4-cyclohexyl-2-hydroxy-N-methyl-N-((1S)-1-(1-naphthyl)ethyl)butanamide Hydrochloride]	1800 nM	–
CCSCC[C@@H](N)C(O)C(=O)N[C@@H](C)C(=O)O (stereo partly shown) [Example 34, hydrochloride]	3100 nM	–
N[C@H](CC1CCCCC1)C(O)C(=O)N[C@@H](CO)C(=O)OCc1cccc(OC(F)(F)F)c1 (stereo partly drawn) [Example 141, 3-(trifluoromethoxy)benzyl (2RS,3R,2'S)-2-((3-amino-4-cyclohexyl-2-hydroxybutanoyl)amino)-3-hydropropanoate trifluoroacetate]	3700 nM	–
N[C@H](CC1CCCCC1)C(O)C(=O)NCc1ccco1 (mixture of isomers) [Example 100, (2RS,3R)-3-Amino-4-cyclohexyl-N-(2-furylmethyl)-2-hydroxybutanamide Hydrochloride]	5900 nM	–
C[C@H](NC(=O)C(O)[C@H](N)Cc1ccccc1)C(=O)OCc1ccccc1 (stereo partly shown) [Example 105, Hydrochloride]	19000 nM	–
N[C@H](CC1CCCCC1)C(O)C(=O)Nc1cc(Cl)cc(Cl)c1 (mixture of isomers) [Example 112, (2RS,3R)-3-Amino-4-cyclohexyl-N-(3,5-dichlorophenyl)-2-hydroxybutanamide Hydrochloride]	1500 nM	–
C[C@H](NC(=O)C(O)[C@H](N)CC1CCCCC1)C(=O)OCc1ccccc1 (stereo partly drawn) [Example 53, (2RS,3R,1'S)-N-((1-benzyloxycarbonylethyl)-3-amino-2hydroxy-$-cyclohexyl)butanamide hydrochloride]	1800 nM	–
N[C@H](CC1CCCCC1)C(O)C(=O)NCCc1ccc(S(N)(=O)=O)cc1 (stereo partly drawn) [Example 88, (2RS,3R)-3-amino-2-hydroxy-4-cyclohexyl)butanoyl-L-alanine-4-sulfonamide benzyl ester hydrochloride]	2200 nM	–
COC(=O)C(Cc1ccccc1)NC(=O)C(O)[C@H](N)CC1CCCCC1 (mixture of isomers) [Example 127, methyl (2RS,3R)-2-((3-amino-4-cyclohexyl-2-hydroxybutanoyl)amino)-3-phenylpropanoate hydrochloride]	28000 nM	–
N[C@H](CC1CCCCC1)C(O)C(=O)NCCCCNS(=O)(=O)c1cccc(C(F)(F)F)c1 (mixture of isomers) [Example 84, (2RS,3R)-3-amino-4-cyclohexyl-2-hydroxy-N-(4-(((3-(trifluoromethyl)phenyl)sulfonyl)amino)butyl)butanamide hydrochloride]	3300 nM	–
Cc1cccc(C)c1NC(=O)C(O)[C@H](N)CC1CCCCC1 (mixture of isomers) [Example 172, (2RS,3R)-3-amino-4-cyclohexyl-N-(2,6-dimethylphenyl)-2-hydroxybutanamide hydrochloride]	5000 nM	–
N[C@H](CC1CCCCC1)C(O)C(=O)NCc1cc(C(F)(F)F)cc(C(F)(F)F)c1 (mixture of isomers) [Example 237, (2RS,3R)-3-amino-N-(3,5-bis(trifluoromethyl)benzyl)-4-cyclohexyl-2-hydroxybutanamide Hydrochloride]	5100 nM	–
CSCC[C@@H](N)C(O)C(=O)NCCc1ccccc1 (stereo partly drawn) [Example 5, (2RS,3R)-N-((2-phenylethyl)-3-amino-2-hydroxy-5-(methylthio)pentanamide hydrochloride]	2600 nM	–
N[C@H](CC1CCCCC1)C(O)C(=O)NCc1ccccc1Cl (mixture of isomers) [Example 159, (2RS,3R)-3-amino-N-(2-chlorobenzyl)-4-cyclohexyl-2-hydroxybutanamide]	1500 nM	–

Compound	IC50 [1]	IC50 (recombinant MetAP2 4 μg/mL, read-out: IC50)
N[C@H](CC1CCCCC1)C(O)C(=O)NCCNC(=O)OCc1ccccc1 (stereo partly shown) [Example 78, hydrochloride]	1800 nM	–
N[C@H](CC1CCCCC1)C(O)C(=O)N[C@@H](CO)C(=O)OCc1cccc([N+](=O)[O-])c1 (stereo partly drawn) [Example 139, 3-nitrobenzyl (2RS,3R,2'S)-2-((3-amino-4-cyclohexyl-2-hydroxybutanoyl)amino)-3-hydroxypropanoate trifluoroacetate]	1700 nM	–
CCNC(=O)[C@H](C)NC(=O)C(O)[C@H](N)CCSC (stereo partly drawn) [Example 3, (2RS,3R,1'S)-N-((1-Ethylcarboxamido)ethyl)-3-amino-2-hydroxy-5-(methylthio)pentanamide hydrochloride]	10000 nM	–
(((2RS,3R)-3-amino-4cyclohexyl-2-hydroxybutanoyl)amino)(2,5-dimethoxybenzyl)chloronium hydrochloride [Example 163]	–	480 nM
N[C@H](CC1CCCCC1)C(O)C(=O)NCc1ccc(C(F)(F)F)cc1 (mixture of isomers) [Example 158, (2RS,3R)-3-amino-4-cyclohexyl-2-hydroxy-N-(4-(trifluoromethyl)benzyl)butanamide]	2800 nM	–
N[C@H](CC1CCCCC1)C(O)C(=O)NCc1cccc(OC(F)(F)F)c1 (mixture of isomers) [Example 236, (2RS,3R)-3-amino-4-cyclohexyl-2-hydroxy-N-(3-(trifluoromethoxy)benzyl)butanamide Hydrochloride]	1900 nM	–
C[C@H](COC(=O)c1ccccc1)NC(=O)C(O)[C@H](N)CC1CCCCC1 (stereo partly shown) [Example 50, hydrochloride]	3700 nM	–
COc1cc(CCNC(=O)C(O)[C@H](N)CC2CCCCC2)ccc1O (stereo partly shown) [Example 59]	1500 nM	–
N[C@H](CC1CCCCC1)C(O)C(=O)NCc1ccccc1C(F)(F)F (mixture of isomers) [Example 238, (2RS,3R)-3-amino-4-cyclohexyl-2-hydroxy-N-(2-(trifluoromethyl)benzyl)butanamide]	2700 nM	–
COc1ccc(-c2ccccc2)cc1NC(=O)C(O)[C@H](N)CC1CCCCC1 (mixture of isomers) [Example 221, (2RS,3R)-3-amino-4-cyclohexyl-2-hydroxy-N-(4-methoxy(1,1'-biphenyl)-3-yl)butanamide Hydrochloride]	5400 nM	–
C[C@@H](COC(=O)c1ccccc1)NC(=O)C(O)[C@H](N)CC1CCCCC1 (stereo partly drawn) [Example 49, (2RS, 3R,2'S)-N-((2-benzoyloxypropyl)-3-amino-2-hydroxy-4-cyclohexyl)butanamide hydrochloride]	2200 nM	–
Cc1ccc(S(=O)(=O)NCCNC(=O)C(O)[C@H](N)CC2CCCCC2)cc1 (stereo partly drawn) [Example 81, (2RS,3R)-3-amino-2-hydroxy-4-cyclohexyl)butanoyl-(2-4-toluenesulfonylaminoethyl)amide hydrochloride]	1800 nM	–
C[C@H](NC(=O)C(O)[C@H](N)CC1CCCCC1)c1cccc2ccccc12 (mixture of isomers) [Example 133, (2RS,3R)-3-amino-4-cyclohexyl-2-hydroxy-N-((1S)-1-(1-naphthyl)ethyl)butanamide hydrochloride]	270 nM	–
N[C@H](CC1CCCCC1)C(O)C(=O)NCCCCNC(=O)OCc1ccccc1 (stereo partly drawn) [Example 77, (2RS,3R)-3-amino-2-hydroxy-4-cyclohexyl)butanoyl-(4-benzloxycarbonylamino)butylamide hydrochloride]	3300 nM	–
COc1ccc(NC(=O)C(O)[C@H](N)CC2CCCCC2)cc1 (mixture of isomers) [Example 145, (2RS,3R)-3-amino-4-cyclohexyl-2-hydroxy-N-(4-methoxyphenyl)butanamide]	1200 nM	–
Cc1ccc([N+](=O)[O-])cc1NC(=O)C(O)[C@H](N)CC1CCCCC1 (mixture of isomers) [Example 184, (2RS,3R)-3-amino-4-cyclohexyl-2-hydroxy-N-(2-methyl-5-nitrophenyl)butanamide hydrochloride]	430 nM	–
CCOC(=O)[C@H](CO)NC(=O)C(O)[C@H](N)CC1CCCCC1 (stereo partly drawn) [Example 46, (2RS,3R,1'S)-N-((2-hydroxy-1-ethoxycarbonylethyl)-3-amino-2-hydroxy-4-cyclohexyl)butanamide hydrochloride]	1100 nM	–
N[C@H](CC1CCCCC1)C(O)C(=O)NCCC(c1ccccc1)c1ccccc1 (mixture of isomers) [Example 216, (2RS,3R)-3-amino-4-cyclohexyl-N-(3,3-diphenylpropyl)-2-hydroxybutanamide Hydrochloride]	1800 nM	–
NCCNC(=O)C(O)[C@H](N)CC1CCCCC1 (stereo partly drawn) [Example 83, (2RS,3R)-3-amino-2-hydroxy-4-cyclohexyl)butanoyl-(2-aminoethyl)amide dihydrochloride]	26000 nM	–
Cc1ccccc1NC(=O)C(O)[C@H](N)CC1CCCCC1 (mixture of isomers) [Example 171, (2RS,3R)-3-amino-4-cyclohexyl-2-hydroxy-N-(2-methylphenyl)butanamide hydrochloride]	950 nM	–
